Assay results as given in patent US20250297036A1, “METHOD FOR CO[…]-DERIVED PEPTIDE-NUCLEIC ACID HYBRID MOLECULES ON BASIS OF IN VITRO SELECTION” (priority 2022, published 2025).

Experiments:
pseudotype SARS-CoV-2 = type: cell-based
SARS-CoV-2 RBD = SARS-CoV-2 RBD (Severe acute respiratory syndrome coronavirus 2, UniProt P0DTC2)
[1] = biological target: SARS-CoV-2 RBD, wild type (SARS-CoV-2), P0DTC2
[2] = biological target: SARS-CoV-2 spike protein on GFP-reporting pseudotype SARS-CoV-2 (SARS-CoV-2), P0DTC2; assay: cell-based or functional assay

## LGKGDFR [LGKGDFR peptide]
Pseudotype SARS-CoV-2
  infection rate with pseudotype SARS-CoV-2 (percentage of infected cells): 12.6%

## R7-02 (GGAAGAGATGGCGACACGCAATCGTGGGTTGGGGATATAATGGTAAGCTGATCCTGATGG; 5' hexynyl group, further chemistry not given here)
Pseudotype SARS-CoV-2
  infection rate with pseudotype SARS-CoV-2 (percentage of infected cells): 1.9%
SARS-CoV-2 RBD
  competition with P05DHu and AM122 antibodies: insignificant

B1: LGKGDFR peptide (hACE2-derived hotspot peptide, not conjugated to DNA) (peptide)
peptide: LGKGDFRK
modifications: not checked
[1]
  % inhibition of RBD-hACE2 interaction: 11.7%
[2]
  infection rate with pseudotype SARS-CoV-2 (GFP-expressing hACE2-293T cells): 12.6%
